From US8148349B2, “Nucleoside cyclic phosphoramidates for the treatment of RNA-dependent RNA viral infection” (Istituto di Ricerche di Biologia Molecolare P. Angeletti …, priority 2006, dated 2012)
Read-outs that look alike come from different tables or passages of the source.

System: subgenomic HCV Replicon in HuH-7 cells
Experiment: Assay for Inhibition of HCV RNA Replication (Replicon assay)
Assay type: cell-based, Hepatitis C Virus
Procedure: A. Assay for Inhibition of HCV RNA Replication:
The compounds of the present invention are evaluated for their ability to affect the replication of Hepatitis C Virus RNA in cultured hepatoma (HuH-7) cells containing a subgenomic HCV Replicon. The details of the assay are described below. This Replicon assay is a modification of that described in V. Lohmann, F. Korner, J-O. Koch, U. Herian, L. Theilmann, and R. Bartenschlager, “Replication of a Sub-genomic Hepatitis C Virus RNAs in a Hepatoma Cell Line,” Science 285:110 (1999).
The assay is an in situ Ribonuclease protection, Scintillation Proximity based-plate assay (SPA). 10,000-40,000 cells are plated in 100-200 μL of media containing 0.8 mg/mL G418 in 96-well cytostar plates (Amersham). Compounds are added to cells at various concentrations up to 100 μM in 1% DMSO at time 0 to 18 h and then cultured for 24-96 h. Cells are fixed (20 min, 10% formalin), permeabilized (20 min, 0.25% Triton X-100/PBS) and hybridized (overnight, 50° C.) with a single-stranded ^33P RNA probe complementary to the (+) strand NS5B (or other genes) contained in the RNA viral genome. Cells are washed, treated with RNAse, washed, heated to 65° C. and counted in a Top-Count. Inhibition of replication is read as a decrease in counts per minute (cpm).
Human HuH-7 hepatoma cells, which are selected to contain a subgenomic replicon, carry a cytoplasmic RNA consisting of an HCV 5′ non-translated region (NTR), a neomycin selectable marker, an EMCV IRES (internal ribosome entry site), and HCV non-structural proteins NS3 through NS5B, followed by the 3′ NTR.

[1] = Hepatitis C virus, Huh-7, read-out: Replicon Assay EC50
[2] = Hepatitis C virus, HuH-7 cells containing a subgenomic HCV Replicon, read-out: Replicon Assay EC50
[3] = HuH-7 cells containing a subgenomic HCV Replicon, read-out: Replicon Assay EC50

## CCCCOC(=O)[C@H](C)NP1(=O)OC[C@H]2O[C@@H](n3ccc(N)nc3=O)[C@](C)(O)[C@@H]2O1 (single isomer, unassigned) [Example 1]
[1]
  EC50: 15 µM

## CCOC(=O)[C@H](C)NP1(=O)OC[C@H]2O[C@@H](n3ccc(N)nc3=O)[C@](C)(O)[C@@H]2O1 (single isomer, unassigned) [Example 2]
[1]
  EC50: 4 µM

## CCCCCCCOC(=O)[C@H](C)NP1(=O)OC[C@H]2O[C@@H](n3ccc(N)nc3=O)[C@](C)(O)[C@@H]2O1 (single isomer, unassigned) [Example 3]
[2]
  EC50: 5 µM

## C[C@H](NP1(=O)OC[C@H]2O[C@@H](n3ccc(N)nc3=O)[C@](C)(O)[C@@H]2O1)C(=O)OC(C)(C)C (stereo partly drawn) [Example 4, tert-butyl N-[(4aR,6R,7R,7aR)-6-(4-amino-2-oxopyrimidin-1(2H)-yl)-7-hydroxy-7-methyl-2-oxidotetrahydro-4H-furo[3,2d][1,3,2]dioxaphosphinin-2-yl]-L-alaninate]
[1]
  EC50: > 20 µM

## CCCCOC(=O)[C@H](C)NP1(=O)OC[C@H]2O[C@@H](n3ccc(N)nc3=O)[C@](C)(O)[C@@H]2O1 (stereo partly drawn) [Example 5, n-butyl N-[(4aR,6R,7R,7aR)-6-(4-amino-2-oxopyrimidin-1(2H)-yl)-7-hydroxy-7-methyl-2-oxidotetrahydro-4H-furo[3,2d][1,3,2]dioxaphosphinin-2-yl]-L-alaninate]
[1]
  EC50: 15 µM

## CCOC(=O)[C@H](CC)NP1(=O)OC[C@H]2O[C@@H](n3ccc(N)nc3=O)[C@](C)(O)[C@@H]2O1 (stereo partly drawn) [Example 6, ethyl (2S)-2-{[(4aR,6R,7R,7aR)-6-(4-amino-2-oxopyrimidin-1(2H)-yl)-7-hydroxy-7-methyl-2-oxidotetrahydro-4H-furo[3,2d][1,3,2]dioxaphosphinin-2-yl]amino}butanoate]
[1]
  EC50: 6 µM

## CCOC(=O)[C@H](CC(C)C)NP1(=O)OC[C@H]2O[C@@H](n3ccc(N)nc3=O)[C@](C)(O)[C@@H]2O1 (stereo partly drawn) [Example 7, ethyl N-[(4aR,6R,7R,7aR)-6-(4-amino-2-oxopyrimidin-1(2H)-yl)-7-hydroxy-7-methyl-2-oxidotetrahydro-4H-furo[3,2-d][1,3,2]dioxaphosphinin-2-yl]-L-leucinate]
[2]
  EC50: 50 µM

## CCC[C@H](NP1(=O)OC[C@H]2O[C@@H](n3ccc(N)nc3=O)[C@](C)(O)[C@@H]2O1)C(=O)OCC (stereo partly drawn) [Example 8, ethyl N-[(4aR,6R,7R,7aR)-6-(4-amino-2-oxopyrimidin-1(2H)-yl)-7-hydroxy-7-methyl-2-oxidotetrahydro-4H-furo[3,2-d][1,3,2]dioxaphosphinin-2-yl]-L-norvalinate]
[1]
  EC50: > 20 µM

## C[C@H](NP1(=O)OC[C@H]2O[C@@H](n3ccc(N)nc3=O)[C@](C)(O)[C@@H]2O1)C(=O)OC1CCCC1 (stereo partly drawn) [Example 9, cyclopentyl N-[(4aR,6R,7R,7aR)-6-(4-amino-2-oxopyrimidin-1(2H)-yl)-7-hydroxy-7-methyl-2-oxidotetrahydro-4H-furo[3,2d][1,3,2]-dioxaphosphinin-2-yl]-L-alaninate]
[2]
  EC50: > 20 µM

## CCOC(=O)[C@H](C)NP1(=O)OC[C@H]2O[C@@H](n3ccc(N)nc3=O)[C@](C)(O)[C@@H]2O1 (stereo partly drawn) [Example 10, ethyl N-[(4aR,6R,7R,7aR)-6-(4-amino-2-oxopyrimidin-1(2H)-yl)-7-hydroxy-7-methyl-2oxidotetrahydro-4H-furo[3,2-d][1,3,2]-dioxaphosphinin-2-yl]-L-alaninate]
[1]
  EC50: 4 µM

## CCCCCCCOC(=O)[C@H](C)NP1(=O)OC[C@H]2O[C@@H](n3ccc(N)nc3=O)[C@](C)(O)[C@@H]2O1 (stereo partly drawn) [Example 11, n-heptyl N-[(4aR,6R,7R,7aR)-6-(4-amino-2-oxopyrimidin-1(2H)-yl)-7-hydroxy-7-methyl-2oxidotetrahydro-4Hfuro[3,2d][1,3,2]-dioxaphosphinin-2-yl]-L-alaninate]
[2]
  EC50: 10 µM

## C[C@H](NP1(=O)OC[C@H]2O[C@@H](n3ccc(N)nc3=O)[C@](C)(O)[C@@H]2O1)C(=O)OC1CCCCC1 (stereo partly drawn) [Example 12, cyclohexyl N-[(4aR,6R,7R,7aR)-6-(4-amino-2-oxopyrimidin-1(2H)-yl)-7-hydroxy-7-methyl-2oxidotetrahydro-4Hfuro[3,2d][1,3,2]dioxaphosphinin-2-yl]-L-alaninate]
[2]
  EC50: > 20 µM

## CC(C)CCOC(=O)[C@H](C)NP1(=O)OC[C@H]2O[C@@H](n3ccc(N)nc3=O)[C@](C)(O)[C@@H]2O1 (stereo partly drawn) [Example 13, isopentyl N-[(4aR,6R,7R,7aR)-6-(4-amino-2-oxopyrimidin-1(2H)-yl)-7-hydroxy-7-methyl-2-oxidotetrahydro-4H-furo[3,2d][1,3,2]-dioxaphosphinin-2-yl]-L-alaninate]
[2]
  EC50: > 20 µM

## COCCCOC(=O)[C@H](C)NP1(=O)OC[C@H]2O[C@@H](n3ccc(N)nc3=O)[C@](C)(O)[C@@H]2O1 (stereo partly drawn) [Example 14, 3-methoxypropyl N[(4aR,6R,7R,7aR)-6-(4-amino-2-oxopyrimidin-1(2H)-yl)-7-hydroxy-7-methyl-2-oxidotetrahydro-4H-furo[3,2-d][1,3,2]dioxaphosphinin-2-yl]-L-alaninate]
[3]
  EC50: 28 µM

## CCC(CC)COC(=O)[C@H](C)NP1(=O)OC[C@H]2O[C@@H](n3ccc(N)nc3=O)[C@](C)(O)[C@@H]2O1 (stereo partly drawn) [Example 15, 2-ethylbutyl N-[(4aR,6R,7R,7aR)-6-(4-amino-2-oxopyrimidin-1(2H)-yl)-7-hydroxy-7-methyl-2-oxidotetrahydro-4H-furo[3,2-d][1,3,2]dioxaphosphinin-2-yl]-L-alaninate]
[2]
  EC50: > 20 µM

## CCCC(CCC)COC(=O)[C@H](C)NP1(=O)OC[C@H]2O[C@@H](n3ccc(N)nc3=O)[C@](C)(O)[C@@H]2O1 (stereo partly drawn) [Example 16, 2-propylpentyl N-[(4aR,6R,7R,7aR)-6-(4-amino-2-oxopyrimidin-1(2H)-yl)-7-hydroxy-7-methyl-2-oxidotetrahydro-4H-furo[3,2-d][1,3,2]dioxaphosphinin-2-yl]-L-alaninate]
[2]
  EC50: 14 µM

## CCCCCCOCCOC(=O)[C@H](C)NP1(=O)OC[C@H]2O[C@@H](n3ccc(N)nc3=O)[C@](C)(O)[C@@H]2O1 (stereo partly drawn) [Example 17, 2-(hexyloxy)ethyl N-[(4aR,6R,7R,7aR)-6-(4-amino-2-oxopyrimidin-1(2H)-yl)-7-hydroxy-7-methyl-2-oxidotetrahydro-4H-furo[3,2-d][1,3,2]dioxaphosphinin-2-yl]-L-alaninate]
[2]
  EC50: 15 µM

## C[C@H](NP1(=O)OC[C@H]2O[C@@H](n3ccc(N)nc3=O)[C@](C)(O)[C@@H]2O1)C(=O)OC1CCCCCC1 (stereo partly drawn) [Example 18, cycloheptyl N-[(4aR,6R,7R,7aR)-6-(4-amino-2-oxopyrimidin-1(2H)-yl)-7-hydroxy-7-methyl-2-oxidotetrahydro-4H-furo[3,2-d][1,3,2]dioxaphosphinin-2-yl]-L-alaninate]
[2]
  EC50: > 10 µM

## C[C@H](NP1(=O)OC[C@H]2O[C@@H](n3ccc(N)nc3=O)[C@](C)(O)[C@@H]2O1)C(=O)OCCCC1CCCCC1 (stereo partly drawn) [Example 19, 3-cyclohexylpropyl N-[(4aR,6R,7R,7aR)-6-(4-amino-2-oxopyrimidin-1(2H)-yl)-7-hydroxy-7-methyl-2-oxidotetrahydro-4H-furo[3,2-d][1,3,2]dioxaphosphinin-2-yl]-L-alaninate]
[2]
  EC50: 10 µM

## CCCC(CCC)C(=O)Nc1ccn([C@@H]2O[C@@H]3COP(=O)(N[C@@H](CC)C(=O)OCC)O[C@H]3[C@@]2(C)O)c(=O)n1 (stereo partly drawn) [Example 20, Ethyl (2S)-2-({(4aR,6R,7R,7aR)-7-hydroxy-7-methyl-2-oxido-6-[2-oxo-4-[(2-propylpentanoyl)amino]pyrimidin-1(2H)-yl]tetrahydro-4H-furo[3,2-d][1,3,2]dioxaphosphinin-2-yl}amino)butanoate]
[2]
  EC50: > 20 µM

## CCCC(CCC)C(=O)Nc1ccn([C@@H]2O[C@@H]3COP(=O)(N[C@@H](C)C(=O)OCC)O[C@H]3[C@@]2(C)O)c(=O)n1 (stereo partly drawn) [Example 21, ethyl N-{(4aR,6R,7R,7aR)-7-hydroxy-7-methyl-2-oxido-6-[2-oxo-4-[(2-propylpentanoyl)amino]pyrimidin-1(2H)-yl]tetrahydro-4H-furo[3,2-d][1,3,2]dioxaphosphinin-2-yl}-L-alaninate]
[2]
  EC50: > 20 µM

## CCCCCCCOC(=O)[C@H](C)NP1(=O)OC[C@H]2O[C@@H](n3ccc(NC(=O)OCCCN(C)C)nc3=O)[C@](C)(O)[C@@H]2O1 (stereo partly drawn) [Example 23, n-heptyl N-{(4aR,6R,7R,7aR)-6-[4-({[3-(dimethylamino)propoxy]carbonyl}amino)-2-oxopyrimidin-1(2H)-yl]-7-hydroxy-7-methyl-2-oxidotetrahydro-4H-furo[3,2-d][1,3,2]dioxaphosphinin-2-yl}-L-alaninate]
[2]
  EC50: > 20 µM

## n-heptyl N-{(4aR,6R,7R,7aR)-7-hydroxy-7-methyl-6-[4-[(1-methylene-2-propylpentyl)amino]-2-oxopyrimidin-1(2H)-yl]-2-oxidotetrahydro-4H-furo[3,2-d][1,3,2]dioxaphosphinin-2-yl}-L-alaninate [Example 22]
[3]
  EC50: 12 µM
